From PubChem BioAssay (NCI)
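Method: 48-hour compound exposure of cells in 96-well plates, five concentrations, linear interpolation of endpoints. Definition used: TGI = concentration required for complete inhibition of growth.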

How the values were obtained:
Experiment in all cases: growth of human tumour cells (NCI), 48 h
[1] = test system: DU-145 prostate
[2] = test system: HOP-62 NSCLC
[3] = test system: SNB-75 CNS
[4] = test system: SF-268 CNS
[5] = test system: MDA-MB-231 breast
[6] = test system: SF-295 CNS
[7] = test system: EKVX NSCLC
[8] = test system: MOLT-4 leukemia
[9] = test system: MDA-MB-435
[10] = test system: NCI-H23 lung
[11] = test system: OVCAR-3 ovarian
[12] = test system: NCI-H522 lung
[13] = test system: LOX IMVI melanoma
[14] = test system: SR leukemia
[15] = test system: K-562 leukemia
[16] = test system: SK-MEL-5 melanoma
[17] = test system: HCT-15 colon
[18] = test system: HCT-116 colon
[19] = test system: OVCAR-4 ovarian
[20] = test system: SK-MEL-2 melanoma

Row | SMILES | TGI [1] [µM] | TGI [2] [µM] | TGI [3] [µM] | TGI [4] [µM] | TGI [5] [µM] | TGI [6] [µM] | TGI [7] [µM] | TGI [8] [µM] | TGI [9] [µM] | TGI [10] [µM] | TGI [11] [µM] | TGI [12] [µM] | TGI [13] [µM] | TGI [14] [µM] | TGI [15] [µM] | TGI [16] [µM] | TGI [17] [µM] | TGI [18] [µM] | TGI [19] [µM] | TGI [20] [µM]
1 | Cc1ccc2c(c1)CC1(Cc3ccccc3C1=O)C2=O (stereo not drawn) | > 100 | > 100 | > 100 | > 100 | > 100 | > 100 | > 100 | > 100 | > 100 | > 100 | > 100 | > 100 | > 100 | > 100 | > 100 | > 100 | > 100 | > 100 | > 100 | 
2 | CCCCCCCCCCCC(=O)OCC(C[As](=O)(O)O)OC(=O)CCCCCCCCCCC (stereo not drawn) | 35.6 | 78 | 21.1 | > 34.1 | 16 | 26.7 | 21 | > 41.6 | 9.91 | 18 | 22.8 | 4.33 | 18.3 | 51.4 | > 38.9 | 3.64 | 25.5 | 18.3 | 33.3 | 12.1
3 | CSc1cc(Cl)c(C)cc1S(=O)(=O)NC(=O)NNc1cccc(C(F)(F)F)n1 | > 100 | > 100 | > 100 | > 100 | > 100 | > 100 | > 100 | 51.8 | > 100 |  | > 100 | > 100 | > 100 | > 100 | > 100 | > 100 | > 100 | > 100 | > 100 | > 100
4 | C1=Cc2cc3c(c4nccc(c24)N1)OCO3 | 26.6 | > 82.4 | 28.7 | 28.9 | > 64.7 | 22.3 | 34 | > 46.8 | > 56.1 | 26.3 | > 100 | 26.2 | > 61.1 | 5.78 | 98.9 |  | > 76.7 | 17 | > 46.6 | 36.6
5 | N#C[C@@H](c1ccccn1)c1ncccc1[N+](=O)[O-] | > 100 | > 100 | > 100 | > 100 | > 100 | > 100 | > 100 | > 100 | > 100 | > 100 | > 100 | > 100 | > 100 | > 100 | > 100 | > 100 | > 100 | > 100 | > 100 | > 100
6 | CCO/C=N\C1=C(C#N)SC2=N/C(=C\c3ccc(OC)cc3)C(=O)N21 | > 100 |  | 46.6 | > 100 | > 100 | > 100 | > 100 | > 100 | > 100 | > 100 |  | > 100 | > 100 | > 100 | > 100 | > 100 | > 100 | > 100 | 65.6 | 
7 | CC1(C)OC(=O)N(c2ccccc2)C12C=Cc1cc([N+](=O)[O-])ccc1O2 (stereo not drawn) | > 100 | > 100 | > 100 | > 100 | 80.4 | > 100 | 98.7 | 84.9 | 62.8 | > 100 | > 100 | > 100 | > 100 | 75.3 | > 100 | > 100 | > 100 | > 100 | > 100 | > 100
8 | C(/C=C/Nc1ccc(Oc2ccccc2)cc1)=Nc1ccc(Oc2ccccc2)cc1 | 39.5 | 38 | 31.9 | 40.7 | 31.1 | 29.4 | 34.7 |  | 31.7 | 48.7 | 34.3 | 37.7 | 28.2 | 39.7 | 55.9 |  | 33.6 | 31.2 | 32.8 | 
9 | CCN(CC)CCSc1c2cc(OC)ccc2nc2ccc(OC)cc12 | 3.56 | > 75.4 | 31.8 | 12.7 | 19.9 | > 57.5 | 29.7 | > 21.8 | 21.3 | > 25.7 | 8.07 | 3.1 |  | > 21.8 | > 22.6 | 27.7 | > 100 | 3.42 | 16.9 | 44.6
10 | CCOc1ncn(-c2ccc(NC(=S)NC3OC(CO)C(O)C(O)C3O)cc2)n1 (stereo not drawn) | > 100 | > 100 | > 100 | > 100 | > 100 | > 100 | > 100 | > 100 | > 100 | > 100 | > 100 | > 100 | > 100 | > 100 | > 100 | > 100 | > 100 | > 100 | > 100 | 
11 | O=C1CC(c2cccc([N+](=O)[O-])c2)C2(C(=O)NC(=O)NC2=O)C(c2cccc([N+](=O)[O-])c2)C1 (stereo not drawn) | > 100 | > 100 | > 100 | 84.1 | > 100 | > 100 |  | > 100 | > 100 | > 100 | 58.2 | > 100 | > 100 | > 100 | > 100 | > 100 | > 100 | 42.8 | > 100 | > 100
12 | O=C(Nc1nnc(-c2ccc(Cl)cc2)o1)C(SC(=S)N1CCOCC1)c1ccccc1 (stereo not drawn) | > 100 | > 100 | > 100 |  | > 100 | 94.4 | 59.7 | > 100 | > 100 | 70.6 | 30.2 | 48.9 | 48.2 | > 100 | > 100 | 26.6 | > 100 | 26.5 | > 100 | 44.7
13 | CCOC(=O)c1c(N2CCOCC2)[nH]c(=O)c(C(c2c(Cl)cccc2Cl)c2c(O)c(C(=O)OCC)c(N3CCOCC3)[nH]c2=O)c1O | 24.6 | 30.4 | 15.6 | 22.2 | 24.9 | 30.6 | 32.9 | 5.51 | 12.1 | 21.8 | 12.1 | 3.72 | 9.08 | 15.9 | 6.55 | 16.1 | 15.6 | 8.83 | 24.1 | 16.2
14 | O=[N+]([O-])c1ccc(S(=O)(=O)n2c3ccc(Br)cc3c3nc4ccccc4nc32)cc1 | > 100 | > 100 | > 100 | > 100 | > 100 | > 100 |  | > 100 | > 100 | > 100 | > 100 | > 100 | > 100 | > 100 | > 100 | > 100 | > 100 | > 100 | > 100 | > 100
15 | CC(=O)Oc1ccc2cc(-c3ccccc3OC(C)=O)c(=O)oc2c1 | > 100 | > 100 | 34.4 | > 100 | > 100 | > 100 | > 100 | > 100 | > 100 | > 100 | > 100 | 17.9 | > 100 | > 100 | > 100 |  | > 100 | > 100 | > 100 | > 100
16 | CCCc1c(O)nc(Nc2nc3ccccc3[nH]2)[nH]c1=O | > 100 |  | > 100 | > 100 | > 100 | > 100 | > 100 | > 100 | > 100 | > 100 |  | > 100 |  | > 100 | > 100 | > 100 | > 100 | > 100 | > 100 | > 100
17 | CC(=O)[C@@H](C)C(=O)N1C(=O)OC[C@@]12[C@@H]1CC[C@@H](C1)C2(C)C | > 100 | > 100 | > 100 |  | > 100 | > 100 | > 100 |  | > 100 | > 100 |  | > 100 | > 100 | > 100 | > 100 | > 100 | > 100 | > 100 | > 100 | > 100
18 | CC(C)=CCC(O)[C@](C)(O)[C@H]1[C@H](O)C[C@@]2(C)[C@@H]3CCc4cc(O)c(OC5OC(CO)C(O)C(O)C5O)cc4C3(C)C(=O)C[C@]12C (stereo partly drawn) | > 100 | > 100 | > 100 | > 100 | > 100 | > 100 | > 100 | > 100 | > 100 | > 100 | > 100 | > 100 |  | > 100 | > 100 | > 100 | > 100 | > 100 | > 100 | > 100
19 | COc1cc(OC)c2c(C)cc(=O)oc2c1 | > 100 | > 100 | > 100 | > 100 | > 100 | > 100 | > 100 | > 100 | > 100 | > 100 | > 100 |  | > 100 | > 100 | > 100 | > 100 | > 100 | > 100 | > 100 | > 100
20 | O=C1NC2O[C@H](CNC(=O)c3cc(Br)c[nH]3)CC2(O)N1 (mixture of isomers) | > 100 | > 100 | > 100 | > 100 | > 100 | > 100 | > 100 | > 100 | > 100 | > 100 | > 100 | > 100 |  | > 100 | > 100 | > 100 | > 100 | > 100 | > 100 | > 100
21 | COC(=O)c1cc2c(cc1CC(Cc1ccc3c(c1)CCCC3)C(=O)OC)CCCC2 (stereo not drawn) | > 100 | > 100 | > 100 | > 100 | > 100 | > 100 |  | > 100 | > 100 | > 100 | > 100 | > 100 | > 100 | > 100 | > 100 | > 100 | > 100 | > 100 | 71.1 | > 100
22 | N#CCCC(CCC#N)(CCC#N)NO | > 100 |  | > 100 | > 100 | > 100 | > 100 | > 100 |  | > 100 | > 100 |  | 46.1 |  | > 100 | > 100 | > 100 | > 100 | > 100 |  | > 100
23 | N#Cc1[nH]c(=O)n(-c2ccccc2)c1N | > 10 | > 10 | > 10 | > 10 | > 10 | 3.72 | > 10 | > 10 | > 10 | > 10 | > 10 |  | 1.58 | > 10 | > 10 | > 10 | > 10 | > 10 | > 10 | > 10
24 | O=C1c2ccccc2C(=O)N1CCCCNOCCCN1C(=O)c2ccccc2C1=O | > 100 | > 100 | > 100 | > 100 | > 100 | > 100 | > 100 | > 100 | > 100 | > 100 | > 100 | > 100 | > 100 | > 100 | > 100 | > 100 | > 100 | > 100 | > 100 | 
